Assay results: PubChem BioAssay AID248 (DTP/NCI, 2004)
Several values for one entry are separate records, joined by “and”; a condition that tells them apart may be missing. Equal values may be shown once. Toxic doses and inconclusive results are not listed. No stated cut-off is given here; in the data, active means T/C of 150% or more; inactive means T/C below 125%.

Test system: L1210 leukemia ip in BDF1 mice, survival T/C
Assay: NCI In Vivo Anticancer Drug Screen. Data for tumor model L1210 Leukemia (intraperitoneal) in B6D2F1 (BDF1) mice
Details: endpoint: mean survival time, higher = longer survival
Method in brief: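 Survival endpoint. Drug-treated group vs vehicle group, expressed as T divided by C. Tumor passaged by transplantation.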

[1] = dose: 100.0 mg/kg/injection, schedule: Q04DX002 (ip), vehicle: Klucel (hydroxypropylcellulose) (HPC)
[2] = dose: 200.0 mg/kg/injection, schedule: Q04DX002 (ip), vehicle: Klucel (hydroxypropylcellulose) (HPC)
[3] = dose: 400.0 mg/kg/injection, schedule: Q04DX002 (ip), vehicle: Klucel (hydroxypropylcellulose) (HPC)
[4] = dose: 400.0 mg/kg/injection, schedule: Q01DX001 (ip), vehicle: carboxymethylcellulose (CMC)

Measured: T/C

COc1ccc2ccccc2c1-c1c([N+](=O)[O-])ccc2ccccc12
inactive: dose: 12.5 mg/kg/injection, schedule: Q04DX002 (ip), vehicle: saline with Tween-80 97 % of control | dose: 25.0 mg/kg/injection, schedule: Q04DX002 (ip), vehicle: saline with Tween-80 90 % of control | dose: 50.0 mg/kg/injection, schedule: Q04DX002 (ip), vehicle: saline with Tween-80 87 % of control | dose: 100.0 mg/kg/injection, schedule: Q04DX002 (ip), vehicle: saline with Tween-80 93 % of control

CCCCCCP(=S)(CCCC)CCCCCC
inactive: [1] 102 % of control | [2] 102 % of control | [3] 102 % of control

Cc1cccc(OC(=O)Nc2cccc(Cl)c2)c1
inactive: dose: 100.0 mg/kg/injection, schedule: Q01DX009 (ip), vehicle: carboxymethylcellulose (CMC) 98 % of control and 110 % of control | [1] 95 % of control | dose: 100.0 mg/kg/injection, schedule: Q04DX002 (ip), vehicle: carboxymethylcellulose (CMC) 93 % of control and 120 % of control and 92 % of control | dose: 100.0 mg/kg/injection, schedule: Q04DX003 (ip), vehicle: carboxymethylcellulose (CMC) 103 % of control | dose: 200.0 mg/kg/injection, schedule: Q01DX009 (ip), vehicle: carboxymethylcellulose (CMC) 96 % of control and 104 % of control | [2] 92 % of control | dose: 200.0 mg/kg/injection, schedule: Q04DX002 (ip), vehicle: carboxymethylcellulose (CMC) 97 % of control and 103 % of control and 106 % of control | dose: 200.0 mg/kg/injection, schedule: Q04DX003 (ip), vehicle: carboxymethylcellulose (CMC) 110 % of control | [3] 95 % of control | dose: 400.0 mg/kg/injection, schedule: Q04DX002 (ip), vehicle: carboxymethylcellulose (CMC) 98 % of control and 100 % of control and 124 % of control | dose: 400.0 mg/kg/injection, schedule: Q04DX003 (ip), vehicle: carboxymethylcellulose (CMC) 94 % of control

O=C(NCCCOc1ccc([N+](=O)[O-])cc1Cl)Nc1ccc(S(=O)(=O)F)cc1
inactive: dose: 75.0 mg/kg/injection, schedule: Q01DX001 (ip), vehicle: carboxymethylcellulose (CMC) 98 % of control | dose: 100.0 mg/kg/injection, schedule: Q04DX003 (ip), vehicle: saline 103 % of control | dose: 150.0 mg/kg/injection, schedule: Q01DX001 (ip), vehicle: carboxymethylcellulose (CMC) 89 % of control | dose: 200.0 mg/kg/injection, schedule: Q04DX003 (ip), vehicle: saline 103 % of control | dose: 300.0 mg/kg/injection, schedule: Q01DX001 (ip), vehicle: carboxymethylcellulose (CMC) 87 % of control | dose: 400.0 mg/kg/injection, schedule: Q04DX003 (ip), vehicle: saline 105 % of control

O=C(CCCC(=O)N/N=C/c1ccccc1C(=O)O)N/N=C\c1ccccc1C(=O)O
inactive: dose: 50.0 mg/kg/injection, schedule: Q01DX001 (ip), vehicle: saline 104 % of control | dose: 100.0 mg/kg/injection, schedule: Q01DX001 (ip), vehicle: saline 102 % of control | dose: 200.0 mg/kg/injection, schedule: Q01DX001 (ip), vehicle: saline 102 % of control | dose: 400.0 mg/kg/injection, schedule: Q01DX001 (ip), vehicle: saline 98 % of control

N#Cc1cc(-c2ccccc2)c[nH]c1=O
inactive: dose: 20.0 mg/kg/injection, schedule: Q01DX001 (ip), vehicle: Klucel (hydroxypropylcellulose) (HPC) 98 % of control | dose: 40.0 mg/kg/injection, schedule: Q01DX001 (ip), vehicle: Klucel (hydroxypropylcellulose) (HPC) 101 % of control | dose: 80.0 mg/kg/injection, schedule: Q01DX001 (ip), vehicle: Klucel (hydroxypropylcellulose) (HPC) 103 % of control | dose: 100.0 mg/kg/injection, schedule: Q01DX001 (ip), vehicle: Klucel (hydroxypropylcellulose) (HPC) 102 % of control

COc1ccc(SC2=C(N(C)C(C)=O)C(=O)c3ccccc3C2=O)cc1
inactive: dose: 7.5 mg/kg/injection, schedule: Q01DX009 (ip), vehicle: Klucel (hydroxypropylcellulose) (HPC) 89 % of control | dose: 15.0 mg/kg/injection, schedule: Q01DX001 (ip), vehicle: Klucel (hydroxypropylcellulose) (HPC) 93 % of control | dose: 15.0 mg/kg/injection, schedule: Q01DX009 (ip), vehicle: Klucel (hydroxypropylcellulose) (HPC) 92 % of control | dose: 30.0 mg/kg/injection, schedule: Q01DX001 (ip), vehicle: Klucel (hydroxypropylcellulose) (HPC) 88 % of control | dose: 30.0 mg/kg/injection, schedule: Q01DX009 (ip), vehicle: Klucel (hydroxypropylcellulose) (HPC) 89 % of control

Oc1ccc(N=Nc2ccccc2)c(O)c1.Oc1ccc(N=Nc2ccccc2)c(O)c1.[Cu]
inactive: dose: 50.0 mg/kg/injection, schedule: Q01DX001 (ip), vehicle: carboxymethylcellulose (CMC) 90 % of control | [4] 87 % of control

COc1ccc(/C=C(/C(=O)c2ccc(O)cc2)c2ccccc2)cc1
inactive: dose: 100.0 mg/kg/injection, schedule: Q01DX001 (ip), vehicle: carboxymethylcellulose (CMC) 87 % of control | dose: 200.0 mg/kg/injection, schedule: Q01DX001 (ip), vehicle: carboxymethylcellulose (CMC) 89 % of control | [4] 87 % of control

Nc1ccc(CNC(=O)COc2ccc(Cl)cc2C(=O)O)cc1
inactive: dose: 100.0 mg/kg/injection, schedule: Q04DX003 (ip), vehicle: Klucel (hydroxypropylcellulose) (HPC) 110 % of control | dose: 200.0 mg/kg/injection, schedule: Q04DX003 (ip), vehicle: Klucel (hydroxypropylcellulose) (HPC) 94 % of control | dose: 400.0 mg/kg/injection, schedule: Q04DX003 (ip), vehicle: Klucel (hydroxypropylcellulose) (HPC) 100 % of control
